Reference: patent US9139577B2, “Sulfoximine substituted quinazolines for pharmaceutical compositions” (Boehringer Ingelheim International GmbH, priority 2013, dated 2015)

Columns and labels:
MNK2a = MNK2a (Homo sapiens (Human), UniProt Q9HBH9); test: MNK2a in vitro kinase assay (Assay 2), ADP-Glo; assay type: biochemical; conditions: read-out: MNK2 IC50
MNK1 = MNK1 (Homo sapiens (Human), UniProt Q9BUB5); test: MNK1 in vitro kinase assay (Assay 3), Z'-LYTE; assay type: biochemical; conditions: for inhibition at 1 µM: compound concentration of 1 μM, read-out: MNK1 % INH
Description: C. MNK1 In vitro Kinase Assay (Assay 3)
MNK1 Data can be obtained from the MNK1 Z′-LYTE® assay. The MNK1 Z′-LYTE® screening protocol and assay conditions are also described on www.invitrogen.com.
The assay is described as follows:
The Z′-LYTE® biochemical assay employs a fluorescence-based, coupled-enzyme format and is based on the differential sensitivity of phosphorylated and non-phosphorylated peptides to proteolytic cleavage. The peptide substrate is labeled with two fluorophores—one at each end—that make up a FRET pair.
In the primary reaction, the kinase transfers the gamma-phosphate of ATP to a single tyrosine, serine or threonine residue in a synthetic FRET-peptide. In the secondary reaction, a site-specific protease recognizes and cleaves non-phosphorylated FRET-peptides. Phosphorylation of FRET-peptides suppresses cleavage by the Development Reagent. Cleavage disrupts FRET between the donor (i.e., coumarin) and acceptor (i.e., fluorescein) fluorophores on the FRET-peptide, whereas uncleaved, phosphorylated FRET-peptides maintain FRET. A ratiometric method, which calculates the ratio (the Emission Ratio) of donor emission to acceptor emission after excitation of the donor fluorophore at 400 nm, is used to quantitate reaction progress, as shown in the equation below.
ASSAY SETUP: The inhibition of kinase activity of MNK1a was assessed using pre-activated GST-MNK1a. The 2×MKNK1 (MNK1) mixture is prepared in 50 mM HEPES pH 7.5, 0.01% BRIJ-35, 10 mM MgCl2, 4 mM MnCl2, 1 mM EGTA, 2 mM DTT.
The Test Compounds are screened in 1% DMSO (final) in the well.
All Peptide/Kinase Mixtures are diluted to a 2× working concentration in the MNK1 Kinase Buffer.
All ATP Solutions are diluted to a 4× working concentration in Kinase Buffer (50 mM HEPES pH 7.5, 0.01% BRIJ-35, 10 mM MgCl2, 1 mM EGTA).
Development Reagent Solution:
The Development Reagent is diluted in Development Buffer
1. 2.5 μL—4× Test Compound
2. 5 μL—2× Peptide/Kinase Mixture
5. 60-minute Kinase Reaction incubation at room temperature
6. 5 μl—Development Reagent Solution
8. 60-minute Development Reaction incubation at room temperature
9. Read on fluorescence plate reader and analyze the data
The following equations are used for each set of data points: […]
Correction for Background Fluorescence: FlSample-FlTCFl Ctl
% Phosphorylation (% Phos): 1−((Emission Ratio×F100%)−C100%)/((C0%−C100%)+[Emission Ratio×(F100%−F0%)])*100%
% Inhibition: 1−(% PhosSample/% Phos0% Inhibition Ctl)*100
Fl=Fluorescence Intensity
C100%=Average Coumarin emission signal of the 100% Phos. Control
C0%=Average Coumarin emission signal of the 0% Phos. Control
F100%=Average Fluorescein emission signal of the 100% Phos. Control
F0%=Average Fluorescein emission signal of the 0% Phos. Control
SelectScreen® Kinase Profiling Service uses XLfit from IDBS.

Chain of MNK1 (Q9BUB5 other isoform, or with tags, fused parts or gaps): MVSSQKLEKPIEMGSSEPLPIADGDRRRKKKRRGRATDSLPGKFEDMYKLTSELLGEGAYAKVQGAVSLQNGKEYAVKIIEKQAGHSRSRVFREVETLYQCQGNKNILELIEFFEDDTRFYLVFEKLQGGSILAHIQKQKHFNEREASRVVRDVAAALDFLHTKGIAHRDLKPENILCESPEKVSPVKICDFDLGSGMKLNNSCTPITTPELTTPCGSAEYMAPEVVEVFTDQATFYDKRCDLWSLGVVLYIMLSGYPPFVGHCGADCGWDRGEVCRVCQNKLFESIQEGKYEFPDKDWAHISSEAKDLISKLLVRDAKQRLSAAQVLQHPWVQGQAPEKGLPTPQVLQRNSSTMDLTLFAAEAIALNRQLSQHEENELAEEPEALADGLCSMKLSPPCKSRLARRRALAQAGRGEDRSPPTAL
Chain of MNK2a (Q9HBH9 whole entry): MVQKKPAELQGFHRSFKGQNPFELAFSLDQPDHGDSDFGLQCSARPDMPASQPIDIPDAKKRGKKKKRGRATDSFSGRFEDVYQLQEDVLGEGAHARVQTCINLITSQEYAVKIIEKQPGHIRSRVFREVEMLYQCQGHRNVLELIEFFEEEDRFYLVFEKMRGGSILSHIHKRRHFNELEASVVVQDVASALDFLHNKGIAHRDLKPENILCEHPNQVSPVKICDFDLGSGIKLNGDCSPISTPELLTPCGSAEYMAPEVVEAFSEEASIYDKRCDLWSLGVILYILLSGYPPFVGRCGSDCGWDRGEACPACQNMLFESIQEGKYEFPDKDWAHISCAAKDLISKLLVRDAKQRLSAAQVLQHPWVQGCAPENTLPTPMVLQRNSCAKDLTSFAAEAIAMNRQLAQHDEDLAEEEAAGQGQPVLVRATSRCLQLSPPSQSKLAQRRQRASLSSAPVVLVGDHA

Cc1cc(N=S2(=O)CCCC2)cc2ncnc(Nc3ccc(F)cc3O[C@H](C)C(=O)NC3CCOCC3)c12 [Example 4.014]
IC50 (MNK2a): 3 nM
inhibition at 1 µM (MNK1): 96%

Cc1cc(N=S2(=O)CCCC2)cc2ncnc(Nc3ccc(F)cc3O[C@H](C)C(=O)NC3CCC3)c12 [Example 4.015]
IC50 (MNK2a): 2 nM
inhibition at 1 µM (MNK1): 102%

Cc1cc(N=S2(=O)CCCC2)cc2ncnc(Nc3ccc(F)cc3O[C@H](C)C(=O)N(C)Cc3ccccc3)c12 [Example 4.017]
IC50 (MNK2a): 9 nM
inhibition at 1 µM (MNK1): 73%

C#CCNC(=O)[C@@H](C)Oc1cc(F)ccc1Nc1ncnc2cc(N=S(C)(C)=O)cc(C)c12 [Example 4.018]
IC50 (MNK2a): 4 nM
inhibition at 1 µM (MNK1): 99%

Cc1cc(N=S(C)(C)=O)cc2ncnc(Nc3ccc(F)cc3O[C@H](C)C(=O)NC3CCOCC3)c12 [Example 4.019]
IC50 (MNK2a): 6 nM
inhibition at 1 µM (MNK1): 92%

Cc1cc(N=S(C)(C)=O)cc2ncnc(Nc3ccc(F)cc3O[C@H](C)C(=O)NCC(C)O)c12 (stereo partly drawn) [Example 4.020]
IC50 (MNK2a): 4 nM
inhibition at 1 µM (MNK1): 98%

COCC(C)NC(=O)[C@@H](C)Oc1cc(F)ccc1Nc1ncnc2cc(N=S(C)(C)=O)cc(C)c12 (stereo partly drawn) [Example 4.021]
IC50 (MNK2a): 12 nM
inhibition at 1 µM (MNK1): 92%

Cc1cc(N=S(C)(C)=O)cc2ncnc(Nc3ccc(F)cc3O[C@H](C)C(=O)N=S(C)(C)=O)c12 [Example 4.022]
IC50 (MNK2a): 10 nM
inhibition at 1 µM (MNK1): 85%

Cc1cc(N=S(C)(C)=O)cc2ncnc(Nc3ccc(F)cc3O[C@H](C)C(=O)NC3CCC3)c12 [Example 4.023]
IC50 (MNK2a): 5 nM
inhibition at 1 µM (MNK1): 99%

C#CCNC(=O)[C@@H](C)Oc1cc(F)ccc1Nc1ncnc2cc(N=S3(=O)CCCC3)cc(C)c12 [Example 4.027]
IC50 (MNK2a): 1 nM
inhibition at 1 µM (MNK1): 99%

Cc1cc(N=S2(=O)CCCC2)cc2ncnc(Nc3ccc(F)cc3O[C@H](C)C(=O)N(C)CCO)c12 [Example 4.028]
IC50 (MNK2a): 4 nM
inhibition at 1 µM (MNK1): 86%

Cc1cc(N=S(C)(C)=O)cc2ncnc(Nc3ccc(F)cc3O[C@H](C)C(=O)NCCO)c12 [Example 4.029]
IC50 (MNK2a): 3 nM
inhibition at 1 µM (MNK1): 99%

CCN(CC)C(=O)[C@@H](C)Oc1cc(F)ccc1Nc1ncnc2cc(N=S(C)(C)=O)cc(C)c12 [Example 4.031]
IC50 (MNK2a): 8 nM
inhibition at 1 µM (MNK1): 78%

CCNC(=O)[C@@H](C)Oc1cc(F)ccc1Nc1ncnc2cc(N=S(C)(C)=O)cc(C)c12 [Example 4.034]
IC50 (MNK2a): 3 nM
IC50 (MNK1): 51 nM

COCCNC(=O)[C@@H](C)Oc1cc(F)ccc1Nc1ncnc2cc(N=S(C)(C)=O)cc(C)c12 [Example 4.035]
IC50 (MNK2a): 66 nM
inhibition at 1 µM (MNK1): 87%

Cc1cc(N=S(C)(C)=O)cc2ncnc(Nc3ccc(F)cc3O[C@H](C)C(=O)N[C@@H]3CCC[C@@H]3O)c12 [Example 4.038]
IC50 (MNK2a): 27 nM
inhibition at 1 µM (MNK1): 78%

COCC(C)NC(=O)[C@@H](C)Oc1cc(F)ccc1Nc1ncnc2cc(N=S3(=O)CCCC3)cc(C)c12 (stereo partly drawn) [Example 4.040]
IC50 (MNK2a): 2 nM
inhibition at 1 µM (MNK1): 97%

COCCN(C)C(=O)[C@@H](C)Oc1cc(F)ccc1Nc1ncnc2cc(N=S3(=O)CCCC3)cc(C)c12 [Example 4.041]
IC50 (MNK2a): 7 nM
inhibition at 1 µM (MNK1): 82%

Cc1cc(N=S2(=O)CCCC2)cc2ncnc(Nc3ccc(F)cc3O[C@H](C)C(=O)NC(C)C)c12 [Example 4.042]
IC50 (MNK2a): 1 nM
inhibition at 1 µM (MNK1): 97%

CC#CCNC(=O)[C@@H](C)Oc1cc(F)ccc1Nc1ncnc2cc(N=S3(=O)CCCC3)cc(C)c12 [Example 4.044]
IC50 (MNK2a): 3 nM
inhibition at 1 µM (MNK1): 96%

Cc1cc(N=S(C)(C)=O)cc2ncnc(Nc3ccc(F)cc3O[C@H](C)C(=O)N[C@H]3CCOC3)c12 [Example 4.045]
IC50 (MNK2a): 3 nM
inhibition at 1 µM (MNK1): 99%

Cc1cc(N=S2(=O)CCCC2)cc2ncnc(Nc3ccc(F)cc3O[C@H](C)C(N)=O)c12 [Example 4.047]
IC50 (MNK2a): 5 nM
inhibition at 1 µM (MNK1): 86%

CCC(C)NC(=O)[C@@H](C)Oc1cc(F)ccc1Nc1ncnc2cc(N=S(C)(C)=O)cc(C)c12 (stereo partly drawn) [Example 4.048]
IC50 (MNK2a): 2 nM
inhibition at 1 µM (MNK1): 98%

CCC(C)NC(=O)[C@@H](C)Oc1cc(F)ccc1Nc1ncnc2cc(N=S3(=O)CCCC3)cc(C)c12 (stereo partly drawn) [Example 4.050]
IC50 (MNK2a): 1 nM
inhibition at 1 µM (MNK1): 100%

Cc1cc(N=S2(=O)CCCC2)cc2ncnc(Nc3ccc(F)cc3O[C@H](C)C(=O)N(C)C)c12 [Example 4.051]
IC50 (MNK2a): 5 nM
inhibition at 1 µM (MNK1): 82%

Cc1cc(N=S2(=O)CCCC2)cc2ncnc(Nc3ccc(F)cc3O[C@H](C)C(=O)N(C)CC(C)C)c12 [Example 4.052]
IC50 (MNK2a): 3 nM
inhibition at 1 µM (MNK1): 94%

Cc1cc(N=S(C)(C)=O)cc2ncnc(Nc3ccc(F)cc3O[C@H](C)C(=O)N(C)C3CCCC3)c12 [Example 4.053]
IC50 (MNK2a): 16 nM
inhibition at 1 µM (MNK1): 80%

Cc1cc(N=S2(=O)CCCC2)cc2ncnc(Nc3ccc(F)cc3O[C@H](C)C(=O)N3CCC(=O)CC3)c12 [Example 4.054]
IC50 (MNK2a): 9 nM
inhibition at 1 µM (MNK1): 95%

COCCN(C)C(=O)[C@@H](C)Oc1cc(F)ccc1Nc1ncnc2cc(N=S(C)(C)=O)cc(C)c12 [Example 4.055]
IC50 (MNK2a): 14 nM
inhibition at 1 µM (MNK1): 62%

Cc1cc(N=S(C)(C)=O)cc2ncnc(Nc3ccc(F)cc3O[C@H](C)C(=O)N3CCN(C)CC3)c12 [Example 4.056]
IC50 (MNK2a): 25 nM
inhibition at 1 µM (MNK1): 74%

Cc1cc(N=S2(=O)CCCC2)cc2ncnc(Nc3ccc(F)cc3O[C@H](C)C(=O)N[C@H]3CCOC3)c12 [Example 4.057]
IC50 (MNK2a): 2 nM
inhibition at 1 µM (MNK1): 102%

Cc1cc(N=S2(=O)CCCC2)cc2ncnc(Nc3ccc(F)cc3O[C@H](C)C(=O)NCC(C)(C)O)c12 [Example 4.058]
IC50 (MNK2a): 3 nM
IC50 (MNK1): 75 nM

COC1CCN(C(=O)[C@@H](C)Oc2cc(F)ccc2Nc2ncnc3cc(N=S4(=O)CCCC4)cc(C)c23)CC1 [Example 4.059]
IC50 (MNK2a): 4 nM
inhibition at 1 µM (MNK1): 90%

Cc1cc(N=S(C)(C)=O)cc2ncnc(Nc3ccc(F)cc3O[C@H](C)C(=O)NC(C)C)c12 [Example 4.060]
IC50 (MNK2a): 2 nM
inhibition at 1 µM (MNK1): 99%

Cc1cc(N=S(C)(C)=O)cc2ncnc(Nc3ccc(F)cc3O[C@H](C)C(=O)N(C)CCO)c12 [Example 4.061]
IC50 (MNK2a): 13 nM
inhibition at 1 µM (MNK1): 70%

Cc1cc(N=S(C)(C)=O)cc2ncnc(Nc3ccc(F)cc3O[C@H](C)C(=O)N3CCCCC3)c12 [Example 4.062]
IC50 (MNK2a): 13 nM
inhibition at 1 µM (MNK1): 88%

Cc1cc(N=S2(=O)CCCC2)cc2ncnc(Nc3ccc(F)cc3O[C@H](C)C(=O)N(C)CCc3ccccc3)c12 [Example 4.063]
IC50 (MNK2a): 10 nM
inhibition at 1 µM (MNK1): 56%

Cc1cc(N=S(C)(C)=O)cc2ncnc(Nc3ccc(F)cc3O[C@H](C)C(=O)N(C)C(C)C)c12 [Example 4.064]
IC50 (MNK2a): 8 nM
inhibition at 1 µM (MNK1): 82%

Cc1cc(N=S(C)(C)=O)cc2ncnc(Nc3ccc(F)cc3O[C@H](C)C(=O)N[C@@H]3CCC[C@H]3O)c12 [Example 4.065]
IC50 (MNK2a): 9 nM
inhibition at 1 µM (MNK1): 93%
